In patent publication US20070042938A1, “Use of dpiv and apn inhibitors for the treatment of dermatalogical diseases involving the hyperproliferation and modified differentiation conditions of fibroblasts” (priority 2003, published 2007):

Tested on: human fibroblasts
Test: DNA synthesis of human fibroblasts (3[H]-thymidine incorporation)
Assay type: cell-based
Details: fibroblasts of healthy donors, 48 h incubation with inhibitor, then 3[H]-methyl thymidine for further 6 h; dose-dependent (FIG. 3)
Method: Fibroblasts of healthy donors were incubated for 48 h together with the above-mentioned inhibitors, and the DNA synthesis was determined subsequently by a measurement of the ^3[H]-thymidine incorporation, as described by Reihold et al. (Reinhold D et al.: Inhibitors of dipeptidyl peptidase IV induce secretion of transforming growth factor β1 in PWM-stimulated PBMNC and T cells, Immunology 1997, 91: 354-360).
For measuring the dose-dependent effect of inhibitors of DP IV (Lys[Z(NO2)] thiazolidide) and of aminopeptidase N (Actinonin) on the DNA synthesis of human fibroblasts, cells were incubated for 48 h with the indicated concentrations of the inhibitors. Subsequently, ^3[H]-Methyl thymidine was added to the culture medium, and the amount of ^3[H]-thymidine incorporated into the DNA was measured after further 6 h.

Compound: N[C@@H](CCCCNC(=O)OCc1ccc([N+](=O)[O-])cc1)C(=O)N1CCSC1 [Lys[Z(NO2)] thiazolidide]
- inhibition of the DNA synthesis of human fibroblasts: inhibited

Compound: CCCCC[C@H](CC(=O)NO)C(=O)N[C@H](C(=O)N1CCC[C@H]1CO)C(C)C [Actinonin]
- inhibition of the DNA synthesis of human fibroblasts: inhibited
